Patent publication US20230278972A1, “SUBSTITUTED HALOALKYL SULFONANILIDE HERBICIDES” (FMC Corporation, priority 2020, published 2023)

What was measured:
Type in all cases: in vivo
[1] = system: pigweed (Amaranthus retroflexus); test: Test A preemergence, pigweed; details: for Plant response rating, Pigweed: 0 to 100 scale (0 no effect, 100 complete control); for Pigweed plant response rating: visual injury on 0 to 100 scale (0 no effect, 100 complete control), approximately 10 days
Method in brief: (§1)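 After sowing into a sand-amended loam, pots for the preemergence test were treated by spraying directly onto soil. In parallel, seedlings at the one- to two-leaf stage and 2 to 10 cm tall were treated postemergence with the identical surfactant-containing formulation.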

[2] = system: barnyardgrass (Echinochloa crus-galli); test: Test A preemergence, barnyardgrass; details: Preemergence; for Plant response rating, Barnyardgrass: 0 to 100 scale (0 no effect, 100 complete control)
Method in brief: (§2)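 Greenhouse pot test in a loam–sand blend; compounds delivered in a non-phytotoxic solvent carrying a surfactant, applied either as a directed spray to soil at seeding or over seedlings 2 to 10 cm high with one to two leaves.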

[3] = system: blackgrass (Alopecurus myosuroides); test: Test A postemergence, blackgrass; details: Postemergence; for Blackgrass plant response rating: 500 g ai/ha, visual injury vs untreated controls after approx. 10 days
Method in brief: as §2

corn (Zea mays) = test: Test A postemergence, corn; details: Postemergence; for Corn plant response rating: 500 g ai/ha, visual injury vs untreated controls after approx. 10 days
Method in brief: as §2

kochia (Bassia scoparia) [4] = test: Test A preemergence, kochia; details: Preemergence; for Plant response rating, Kochia: 0 to 100 scale (0 no effect, 100 complete control); for Kochia plant response rating: visual injury on 0 to 100 scale (0 no effect, 100 complete control), approximately 10 days
Method in brief: as §2

[5] = system: Foxtail, Giant (giant foxtail, Setaria faberi); test: Test A postemergence, Foxtail, Giant; details: Postemergence; for Foxtail, Giant plant response rating: 500 g ai/ha, visual injury vs untreated controls after approx. 10 days
Method in brief: as §2

[6] = system: ragweed (common ragweed, Ambrosia artemisiifolia); test: Test A postemergence, ragweed; details: Postemergence; for Ragweed plant response rating: 500 g ai/ha, visual injury vs untreated controls after approx. 10 days
Method in brief: as §2

[7] = system: pigweed (Amaranthus retroflexus); test: Test A postemergence, pigweed; details: Postemergence; for Pigweed plant response rating: 500 g ai/ha, visual injury vs untreated controls after approx. 10 days
Method in brief: as §2

[8] = system: barnyardgrass (Echinochloa crus-galli); test: Test A postemergence, barnyardgrass; details: Postemergence; for Barnyardgrass plant response rating: 500 g ai/ha, visual injury vs untreated controls after approx. 10 days
Method in brief: as §1

[9] = system: ragweed (common ragweed, Ambrosia artemisiifolia); test: Test A preemergence, ragweed; details: Preemergence; for Plant response rating, Ragweed: 0 to 100 scale (0 no effect, 100 complete control); for Ragweed plant response rating: visual injury on 0 to 100 scale (0 no effect, 100 complete control), approximately 10 days
Method in brief: as §2

[10] = system: galium (catchweed bedstraw, Galium aparine); test: Test A postemergence, galium; details: Postemergence; for Galium plant response rating: 500 g ai/ha, visual injury vs untreated controls after approx. 10 days
Method in brief: as §1

[11] = system: Foxtail, Giant (giant foxtail, Setaria faberi); test: Test A preemergence, Foxtail, Giant; details: Preemergence; for Plant response rating, Foxtail, Giant: 0 to 100 scale (0 no effect, 100 complete control); for Foxtail, Giant plant response rating: visual injury on 0 to 100 scale (0 no effect, 100 complete control), approximately 10 days
Method in brief: as §2

[12] = system: wheat (Triticum aestivum); test: Test A postemergence, wheat; details: Postemergence; for Wheat plant response rating: 500 g ai/ha, visual injury vs untreated controls after approx. 10 days
Method in brief: as §1

[13] = system: Ryegrass, Italian (Italian ryegrass, Lolium multiflorum); test: Test A preemergence, Ryegrass, Italian; details: Preemergence; for Plant response rating, Ryegrass, Italian: 0 to 100 scale (0 no effect, 100 complete control); for Ryegrass, Italian plant response rating: visual injury on 0 to 100 scale (0 no effect, 100 complete control), approximately 10 days
Method in brief: as §2

[14] = system: Ryegrass, Italian (Italian ryegrass, Lolium multiflorum); test: Test A postemergence, Ryegrass, Italian; details: Postemergence; for Ryegrass, Italian plant response rating: 500 g ai/ha, visual injury vs untreated controls after approx. 10 days
Method in brief: as §2

kochia (Bassia scoparia) [15] = test: Test A postemergence, kochia; details: Postemergence; for Kochia plant response rating: 500 g ai/ha, visual injury vs untreated controls after approx. 10 days
Method in brief: as §2

[16] = 125 g ai/ha, visual injury, approx. 10 days
[17] = 125 g ai/ha, 0 to 100 scale (0 no effect, 100 complete control)
[18] = 0 to 100 scale (0 no effect, 100 complete control)
[19] = 31 g ai/ha, visual injury, approx. 10 days
[20] = 31 g ai/ha, visual injury on 0 to 100 scale (0 no effect, 100 complete control), approx. 10 days

SMILES: Cc1cc(C)c(C(=O)N2CCC3(CC2)OCCCO3)cc1NS(=O)(=O)C(F)(F)F [Compound 194]
- Plant response rating, Pigweed [1, 16]: 90
- Plant response rating, Pigweed ([1]; 500 g ai/ha): 100
- Plant response rating, Barnyardgrass [2, 16]: 90
- Plant response rating, Barnyardgrass ([2]; 500 g ai/ha): 90
- Plant response rating, Blackgrass [3, 17]: 0
- Blackgrass plant response rating [3, 18]: 0
- Plant response rating, Corn (corn (Zea mays); [17]): 0
- Corn plant response rating (corn (Zea mays); [18]): 0
- Plant response rating, Kochia (kochia (Bassia scoparia) [4]; [16]): 40
- Plant response rating, Kochia (kochia (Bassia scoparia) [4]; 500 g ai/ha): 90
- Plant response rating, Foxtail, Giant [5, 17]: 10
- Foxtail, Giant plant response rating [5, 18]: 80
- Plant response rating, Ragweed [6, 17]: 60
- Ragweed plant response rating [6, 18]: 90
- Plant response rating, Pigweed [7, 17]: 0
- Pigweed plant response rating [7, 18]: 50
- Plant response rating, Barnyardgrass [8, 17]: 0
- Barnyardgrass plant response rating [8, 18]: 80
- Plant response rating, Ragweed [9, 16]: 80
- Plant response rating, Ragweed ([9]; 500 g ai/ha): 90
- Plant response rating, Galium [10, 17]: 70
- Galium plant response rating [10, 18]: 90
- Plant response rating, Foxtail, Giant [11, 16]: 80
- Plant response rating, Foxtail, Giant ([11]; 500 g ai/ha): 100
- Plant response rating, Wheat [12, 17]: 0
- Wheat plant response rating [12, 18]: 60
- Plant response rating, Ryegrass, Italian [13, 16]: 30
- Plant response rating, Ryegrass, Italian ([13]; 500 g ai/ha): 100
- Plant response rating, Ryegrass, Italian [14, 17]: 0
- Ryegrass, Italian plant response rating [14, 18]: 50
- Plant response rating, Kochia (kochia (Bassia scoparia) [15]; [17]): 20
- Kochia plant response rating (kochia (Bassia scoparia) [15]; [18]): 40

SMILES: Cc1cc(F)c(C(=O)N2CCC(C#N)CC2)cc1N(S(=O)(=O)C(F)(F)F)S(=O)(=O)C(F)(F)F [Compound 239]
- Plant response rating, Pigweed [1, 16]: 60
- Pigweed plant response rating ([1]; 500 g ai/ha): 90
- Plant response rating, Barnyardgrass [2, 16]: 0
- Plant response rating, Barnyardgrass ([2]; 500 g ai/ha): 20
- Plant response rating, Blackgrass [3, 17]: 0
- Blackgrass plant response rating [3, 18]: 0
- Plant response rating, Corn (corn (Zea mays); [17]): 0
- Corn plant response rating (corn (Zea mays); [18]): 10
- Plant response rating, Kochia (kochia (Bassia scoparia) [4]; [16]): 30
- Kochia plant response rating (kochia (Bassia scoparia) [4]; 500 g ai/ha): 80
- Plant response rating, Foxtail, Giant [5, 17]: 0
- Foxtail, Giant plant response rating [5, 18]: 30
- Plant response rating, Ragweed [6, 17]: 0
- Ragweed plant response rating [6, 18]: 0
- Plant response rating, Pigweed [7, 17]: 20
- Pigweed plant response rating [7, 18]: 50
- Plant response rating, Barnyardgrass [8, 17]: 0
- Barnyardgrass plant response rating [8, 18]: 0
- Plant response rating, Ragweed [9, 16]: 20
- Ragweed plant response rating ([9]; 500 g ai/ha): 70
- Plant response rating, Galium [10, 17]: 0
- Galium plant response rating [10, 18]: 40
- Plant response rating, Foxtail, Giant [11, 16]: 20
- Foxtail, Giant plant response rating ([11]; 500 g ai/ha): 60
- Plant response rating, Wheat [12, 17]: 0
- Wheat plant response rating [12, 18]: 0
- Plant response rating, Ryegrass, Italian [13, 16]: 0
- Ryegrass, Italian plant response rating ([13]; 500 g ai/ha): 30
- Plant response rating, Ryegrass, Italian [14, 17]: 0
- Ryegrass, Italian plant response rating [14, 18]: 0
- Plant response rating, Kochia (kochia (Bassia scoparia) [15]; [17]): 0
- Kochia plant response rating (kochia (Bassia scoparia) [15]; [18]): 10

SMILES: Cc1cc(C)c(N2CC3(CCOCC3)OC2=O)cc1NS(=O)(=O)C(F)(F)F [Compound 156]
- Plant response rating, Pigweed [1, 19]: 80
- Pigweed plant response rating ([1]; 125 g ai/ha): 100
- Plant response rating, Barnyardgrass [2, 19]: 70
- Barnyardgrass plant response rating ([2]; 125 g ai/ha, visual injury on 0 to 100 scale (0 no effect, 100 complete control), approximately 10 days): 100
- Plant response rating, Blackgrass [3, 20]: 0
- Plant response rating, Blackgrass [3, 17]: 40
- Plant response rating, Corn (corn (Zea mays); [20]): 0
- Plant response rating, Corn (corn (Zea mays); [17]): 20
- Plant response rating, Kochia (kochia (Bassia scoparia) [4]; [19]): 30
- Kochia plant response rating (kochia (Bassia scoparia) [4]; 125 g ai/ha): 50
- Plant response rating, Foxtail, Giant [5, 20]: 30
- Plant response rating, Foxtail, Giant [5, 17]: 70
- Plant response rating, Ragweed [6, 20]: 90
- Plant response rating, Ragweed [6, 17]: 90
- Plant response rating, Pigweed [7, 20]: 60
- Plant response rating, Pigweed [7, 17]: 90
- Plant response rating, Barnyardgrass [8, 20]: 90
- Plant response rating, Barnyardgrass [8, 17]: 90
- Plant response rating, Ragweed [9, 19]: 60
- Ragweed plant response rating ([9]; 125 g ai/ha): 90
- Plant response rating, Galium [10, 20]: 100
- Plant response rating, Galium [10, 17]: 100
- Plant response rating, Foxtail, Giant [11, 19]: 50
- Foxtail, Giant plant response rating ([11]; 125 g ai/ha): 100
- Plant response rating, Wheat [12, 20]: 30
- Plant response rating, Wheat [12, 17]: 40
- Plant response rating, Ryegrass, Italian [13, 19]: 50
- Ryegrass, Italian plant response rating ([13]; 125 g ai/ha): 70
- Plant response rating, Ryegrass, Italian [14, 20]: 0
- Plant response rating, Ryegrass, Italian [14, 17]: 10
- Plant response rating, Kochia (kochia (Bassia scoparia) [15]; [20]): 40
- Plant response rating, Kochia (kochia (Bassia scoparia) [15]; [17]): 70
